From US5814612A, “Retinol derivatives and uses thereof” (priority 1992, dated 1998)
Entries after “also recorded” stand apart in the source; their conditions may differ. Read-outs that look alike come from different tables or passages of the source.

Legend:
[1] = test system: CD8^+ T lymphocytes; assay: Proliferation of anti-CD3 plus IL-2 activated CD8+ T lymphocytes; type: cell-based, BALB/c mouse
Description: Growth curves of lymph node T cells depleted of antigen-presenting cells (FIG. 17A) with and without 10^-6 M retinol at 2×10^5 and 5×10^4 cells/well. (FIG. 17B) Dose-responses elicited by different retinoids in cultures of lymph node T cells depleted of antigen-presenting cells. Also shown are the growth curves of CD4^+ (FIG. 17C) and CD8^+ T lymphocytes (FIG. 17D) in the presence of either retinol, 14HRR, human serum or in their absence.
T lymphocytes, purified as described, 5×10^4 /well, were activated with immobilized anti-CD3 antibody in ITLB medium. The indicated amounts of retinoids or human serum were added at initiation of cultures. […] 14HRR was added every 12 hours. DNA synthesis was measured by a 4 hour pulse with tritiated thymidine. SDs were ≤17%.
Mature T cells were obtained from pooled intestinal, axillary, inguinal and submandibular lymph nodes of 4 to 10-week-old BALB/c mice. To fractionate cells into CD4 and CD8 subsets and at the same time remove APC, a combination of adherence and complement lysis was used as follows:
The cell suspension in a volume of 2 ml was applied to a nylon wool column (40) (0.6 g of washed nylon fibers in the barrel of a 10 ml syringe) and incubated at 37° C. for 40 min. […] The success of the enrichment procedures was monitored cytofluorimetrically using FITC-conjugated anti-CD8 and PE-conjugated anti-CD4. […]

[2] = Stability of retinoids in serum-free tissue culture medium; type: in vitro ADME
[3] = test system: immediate early genes in fibroblasts; assay: Expression of immediate early genes in fibroblasts; type: cell-based; details: work to be published elsewhere
[4] = Reversion of 14HRR to retinal; type: in vitro ADME
[5] = test system: thymocytes; assay: Proliferation of Con A stimulated thymocytes in serum-free ITLB medium; type: cell-based, BALB/c mouse; details: 3×10^-6 M retinol, Con A 0.5 μg/ml
Protocol: Purified thymocytes (5×10^5 cells/well) were stimulated by TCR crosslinking with immobilized anti-CD3e antibody (FIG. 15A) or 0.4 μg/ml Con A (FIG. 15B) in serum-free ITLB medium. The indicated amounts of retinoids were added either once at the beginning of the experiment (marked as "1×") or every 12 hours thereafter (marked as "6×"). DNA synthesis was measured after 72 hours by tritiated thymidine uptake as described.
Thymuses of 3 to 6-week-old BALB/c mice were teased in serum-free RPMI medium supplemented with 1% BSA, 10^-6 M linoleic acid and antibiotics. […] Cell viability was evaluated by trypan blue dye exclusion. To determine the extent of depletion of accessory cells, samples were stained with FITC-conjugated anti-Fc receptor antibody and analyzed by flow cytometry on a FACScan instrument (Becton Dickinson). No FcR-bearing cells were detected by this procedure.
Cells were cultured in serum-free medium, referred to as ITLB, containing RPMI 1640 supplemented with 8×10^-7 M insulin (5 μg/ml), 7×10^-8 M transferrin (5 μg/ml), 2×10^-6 M linoleic acid, 2×10^-6 M delipidated BSA (0.12 mg/ml), 2 mM L-glutamine, 1 mM sodium pyruvate and antibiotics. […] The optimal concentration for stimulation of T cells was determined for each batch of anti-CD3 mAb and Con A. The optimal range of Con A was particularly narrow in serum-free medium (0.5-0.2 μg/ml) and varied with the cell density used. […]

[6] = test system: 26 mammalian cells; assay: 3H retinol conversion to P3/14HRR in 26 mammalian cells; type: in vitro ADME; details: retinol bound to fetal calf serum
Protocol: The use of ^3 H retinol bound to fetal calf serum was used as an assay to test for P3 in other cell lines.
The use of ^3 H retinol bound to fetal calf serum was used as an assay to test for 14HRR in other cell lines.
(§1) Legend: 2.5×10^6 cells were grown overnight in 5 ml RPMI/10% FBS. The FBS was preincubated at room temperature with 14.4 uCi [^3 H] retinol (NEN) for 4h. The cell pellet was washed twice with PBS. The retinoid were extracted according to MClean et al. 90 and separated on an analytical c18 reverse phase column according to FIG. 7. The DPM were determined using an on-line scintillation counter.

[7] = test system: Hela; assay: Retinol metabolism, Hela; type: in vitro ADME, human
Protocol: as §1

[8] = test system: SK--N--SH; assay: Retinol metabolism, SK--N--SH; type: in vitro ADME, human
Protocol: as §1

| Compound | response of CD8+ subset to anti-CD3 plus IL-2 [1] | half-life [2] [h] | half-life ([2]; tissue culture medium, data not shown) [h] | expression of immediate early genes [3] | reversion to retinal [4] | Con A stimulated thymocyte proliferation [5] | formation of P3/14HRR from 3H retinol [6] | Ester (% of taken up retinol) [7] [%] | P3 (% of taken up retinol) [7] [%] | Total cts. [7] | Ester (% of taken up retinol) [8] [%] | P3 (% of taken up retinol) [8] [%] | Retinol (% of taken up retinol) [8] [%] | Total cts. [8] |
| --- | --- | --- | --- | --- | --- | --- | --- | --- | --- | --- | --- | --- | --- | --- |
| CC(C=CC=C(C)C(O)CO)=CC=C1C(C)=CCCC1(C)C (centres unmarked) [14HRR, 14-hydroxy-4,14-retro-retinol] | responded to the activating signal | ~4 | 4 | facilitates the expression of immediate early genes in fibroblasts | does not revert to retinal |  |  |  |  |  |  |  |  |  |
| CC1=C(/C=C/C(C)=C/C=C/C(C)=C/CO)C(C)(C)CCC1 [retinol, all-trans retinol] |  |  |  |  |  | growing exponentially | radioactivity peak at the position where 14HRR normally elutes; also recorded: radioactivity peak at the position where P3 normally elutes | 20 | 3 | 1.0 × 10^5 cts. | 25 | 0.9 | 56 | 2.0 × 10^5 cts. |
